# Patent US20240417406A1, “NITROGEN-CONTAINING TRICYCLIC COMPOUND AND PHARMACEUTICAL USE THEREOF” (JAPAN TOBACCO INC., priority 2021, published 2024)
# Target: human PDHK2 (hPDHK2) (Homo sapiens (Human), UniProt Q15119)
# Assay: Inhibitory action of PDHK2 activity (PDH/hPDHK2 complex, residual PDH activity by NADH absorbance at 340 nm)
# Format: biochemical
# Details: FLAG-tagged recombinant hPDHK2 with porcine heart PDH complex; PDHK reaction 45 min at room temperature
# Summary of the method: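 N-FLAG hPDHK2 from E. coli (0.5 μg/mL) preincubated overnight at 4 °C with porcine heart PDH complex (0.025 U/mL), pH 7.0 MOPS buffer. Pyruvate, CoA, NAD and TPP substrates added, 90 min at room temperature. Residual PDH activity from NADH A340 change, corrected for compound effect on PDH alone; IC50 from inhibition %.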
row,SMILES,IC50 [nM]
1,"C[C@H]1Cn2nc(OCC34CC(C#N)(C3)C4)cc2-c2cnc([C@@](C)(O)C(F)(F)F)n21 [Example 97, 3-((((S)-5-methyl-3-((R)-1,1,1-trifluoro-2-hydroxypropan-2-yl)-5,6-dihydroimidazo[1,5-a]pyrazolo[5,1-c]pyrazin-9-yl)oxy)methyl)bicyclo[1.1.1]pentane-1-carbonitrile]",8.8
2,"C[C@H]1Cn2nc(C(F)(F)F)cc2-c2cnnc([C@@](C)(O)C(F)(F)F)c21 [Example 100, (R)-1,1,1-trifluoro-2-((R)-5-methyl-9-(trifluoromethyl)-5,6-dihydropyrazolo[1′,5′:1,2]pyrido[3,4-d]pyridazin-4-yl)propan-2-ol]",11.1
3,"C[C@H]1Cc2nn([C@H]3CC[C@](C)(O)CC3)cc2-c2onc([C@@](C)(O)C(F)(F)F)c21 [Example 105, (1S,4r)-1-methyl-4-((S)-4-methyl-3-((R)-1,1,1-trifluoro-2-hydroxypropan-2-yl)-4,5-dihydro-7H-isoxazolo[5,4-e]indazol-7-yl)cyclohexan-1-ol]",10

# Results, then the molecule that gave them:
row,IC50 [nM],SMILES
1,49.5,C[C@H]1Cn2nc(C34CCC(CO)(CC3)CO4)cc2-c2cnc([C@@](C)(O)C(F)(F)F)n21 [Example 94]
2,9.1,"C[C@H]1Cn2nc(C34CCC(C(C)(C)O)(CC3)CO4)cc2-c2cnc([C@@](C)(O)C(F)(F)F)n21 [Example 98, (R)-1,1,1-trifluoro-2-((S)-9-(4-(2-hydroxypropan-2-yl)-2-oxabicyclo[2.2.2]octan-1-yl)-5-methyl-5,6-dihydroimidazo[1,5-a]pyrazolo[5,1-c]pyrazin-3-yl)propan-2-ol]"
